According to PubChem BioAssay (NCI):
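In this assay, cells in 96-well plates receive the compound at five concentrations for 48 hours. Endpoints are linearly interpolated between the surrounding concentrations. At the GI50, growth is halved. TGI marks complete inhibition of growth.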

Key:
Assay in all cases: NCI-60 cell line screen, 48 h
[1] = test system: SN12C renal
[2] = test system: MCF7 breast
[3] = test system: UACC-62 melanoma
[4] = test system: 786-0 renal
[5] = test system: NCI-H226 lung
[6] = test system: OVCAR-5 ovarian
[7] = test system: SW-620 colon
[8] = test system: TK-10 renal

Structure (SMILES)	GI50 [1] [nM]	TGI [1] [µM]	GI50 [2] [nM]	TGI [2] [µM]	GI50 [3] [nM]	TGI [3] [µM]	GI50 [4] [nM]	TGI [4] [µM]	GI50 [5] [nM]	TGI [5] [µM]	GI50 [6] [µM]	TGI [6] [µM]	GI50 [7] [nM]	TGI [7] [µM]	GI50 [8] [µM]	TGI [8] [µM]
Cc1cc(O)c(-c2ccc([C@@H](C)CN(C)C)cc2)c2c1[nH]c(=O)c1sccc12	627	20.7	103	3.14	1320	4.99	248	5.43	1750	18.4	2.25	17.5	556	> 61.9	0.647	5.87
O=C1N=C(Nc2nc(-c3csc(NC4=NC(=O)/C(=C\c5ccccc5)S4)n3)cs2)S/C1=C/c1ccccc1	5640	20.6	3700	> 50	6400	18.5	9540	34.9	337	12.8	34	> 50	31700	> 50	10.1	33.3
O=C(O)c1ccc(SSc2ccc(C(=O)O)cn2)nc1	–	> 100	–	> 100	–	> 100	–	> 100	–	> 100	–	> 100	–	> 100	–	> 100
CNC(=O)c1cncc(/C=C/c2ccccc2Cl)c1	> 25000	> 25	> 25000	> 25	> 25000	> 25	> 25000	> 25	> 25000	> 25	> 25	> 25	> 25000	> 25	> 25	> 25
N#Cc1cccc(C2C3=C(COC3=O)N(CCO)c3cc4c(cc32)OCO4)c1 (stereo not drawn)	3810	> 50	942	> 50	1660	> 50	2040	> 50	> 50000	> 50	7.92	> 50	1530	> 50	15.4	> 50
C[C@]12C[C@H](O)[C@H]3[C@@H](CCC4=CC(=O)CC[C@@]43C)[C@@H]1CC[C@@H]2c1csc(-c2ccccc2)n1	–	> 100	–	> 100	–	> 100	–	> 100	–	> 100	–	> 100	–	> 100	–	> 100
C=C1C(=O)O[C@H]2C[C@@H]1C(=O)CC(C)CCCC(C)=CCC[C@@]2(C)O (stereo partly drawn)	–	> 25	–	> 25	–	> 25	–	> 25	–	> 25	–	> 25	–	> 25	–	> 25
NC(Cc1ccccc1)c1nccs1 (stereo not drawn)	–	> 100	–	> 100	–	> 100	–	> 100	–	> 100	–	> 100	–	> 100	–	> 100
COc1cc2nccc(Oc3ccc(NC(=O)c4cn(C(C)C)c(=O)n(-c5ccc(F)cc5)c4=O)cc3F)c2cc1OC	2810	> 100	> 100000	> 100	6030	> 100	> 100000	> 100	6760	> 21.8	5.6	> 100	5770	> 100	> 70.7	> 100
CCn1c2ccccc2c2cc(C(=O)c3ccc(C)c4ccccc34)ccc21	2440	> 100	311	> 100	296	3.52	426	> 100	1910	> 100	0.62	> 100	352	> 100	0.658	> 100
CS(=O)(=O)N(c1cc(-c2ccc3ncnc(Nc4ccc(F)c(Cl)c4)c3c2)cnc1Cl)S(C)(=O)=O	964	> 32.6	246	3.58	490	2.93	1580	> 26.4	1900	24.3	0.795	10.2	1710	> 38.4	0.44	3.73
Cc1ccc(C(=O)NC2CC2)cc1-c1ccc2[nH]ncc2c1	> 25000	> 25	> 25000	> 25	> 25000	> 25	> 25000	> 25	> 25000	> 25	> 25	> 25	> 25000	> 25	> 25	> 25
COC(=O)N[C@H]1CCc2c(Cl)c(OC)c(OC)c(OC)c2-c2ccc(SC)c(=O)cc21	< 10	> 43.9	< 10	> 37.4	< 10	20.1	< 10	> 36.9	< 10	14.2	< 0.01	> 94.8	< 10	> 100	15.8	> 100
O=P(O)(O)OCC1OC(n2cnc3c(NCc4ccccc4)ncnc32)C(O)C1O (stereo not drawn)	509	> 100	1310	19.3	5020	> 100	2830	> 67.6	2260	6.48	3.11	> 100	1330	> 73.9	2.15	30.2
C[C@@H]1CC[C@@]2(NC1)O[C@H]1C[C@H]3[C@@H]4CC[C@H]5C[C@@H](O)CC[C@]5(C)[C@H]4CC[C@]3(C)[C@H]1[C@@H]2C	–	> 100	–	> 100	–	> 100	–	> 100	–	> 100	–	> 100	–	> 100	–	> 100
CC1=NOC(=O)/C1=C/c1ccc2c(c1)OCO2	–	59.4	–	> 100	–	43.5	–	46.6	–	49.8	–	> 100	–	60.9	–	> 100
